Data from US20260272936A1, “TREATMENT OF CANCER WITH A PARG INHIBITOR” (858 Therapeutics, Inc., priority 2023, published 2026).

Columns and labels:
[1] = test system: T025OV ovarian cancer patient-derived organoid; assay: 7-day organoid colony formation, ATP content (Cell Titer Glo 3D); assay type: cell-based; settings: Homo sapiens, 168 h, T025OV PDO, 7 days, geometric mean
Excerpt: The FU-97 (Cat #JCRB1074) human gastric cancer cell line and the Kuramochi (Cat #JCRB0098) and RMUG-S(Cat #IFO50320) human ovarian cancer cell lines were obtained from the National Institutes of Biomedical Innovation, Health and Nutrition's Japanese Collection of Research Bioresources (JCRB) (Ibaraki City, Osaka, Japan). The HCC1419 (Cat #CRL-2326) and HCC1428 (Cat #CRL-2327) human breast cancer cell lines and the NCI-H1650 (Cat #CRL-5883) and NCI-H1792 (Cat #CRL-5895) non-small cell lung cancer cell lines were obtained from ATCC (Manassas, Virginia, USA). The human gastric cancer cell lines GCIY (Cat #RCB0555) and SNU601 (Cat #CSC-C9686L) were obtained from the Riken Bioresource Research Center (Tsukuba, Ibaraki, Japan) and Creative Bioarray (Shirley, NY, USA), respectively. The T025OV ovarian cancer organoid model was developed from a patient-derived xenograft (PDX) model, which was developed from primary serous ovarian carcinoma cells obtained from Discovery Life Sciences (Huntsville, AL, USA, SN #350627149). […]
Compound 1 IC50 values for inhibition of organoid colony formation were determined by measuring ATP levels after 7 days of treatment utilizing Cell Titer Glo 3D reagent (Promega, Madison, WI, USA Cat #G9683). […] Luminescence values (RLU) were read-out using a Clariostar plate reader (BMG Labtech, Cary, NC). […]

[2] = test system: HCC1428 breast cancer xenograft; settings: monotherapy or in combinations
Description: The CDX model was established by subcutaneous inoculation of HCC1428 cells into the right flank of BALB/c nude mice. Mice were injected subcutaneously with estradiol benzoate one day prior to cell inoculation and then twice per week thereafter to promote optimal growth of the ER^+ cell line. Groups of 9 animals each were established by random assignment. Tumor volumes and body weights were measured twice weekly. Tumor volume and percent tumor growth inhibition (TGI) or percent tumor regression (REG) were calculated as described in Example 4A. End-of-study Day […] TGI or REG was calculated relative to the Day 25 mean TV from the vehicle group. Statistical analysis of the Day 25 tumor volumes was performed using the Brown-Forsythe and Welch ANOVA test.
Compound treatment was initiated when the mean tumor volume of each group was 184 mm^3. Compound 1 was administered to mice orally for 25 days once daily (QD) at a dose of 100 mg/kg based on body weight. Abemaciclib was administered orally at a dose of 30 mg/kg QD for 25 days based on body weight and fulvestrant was administered subcutaneously at a dose of 5 mg/mouse once per week (QW). Following the dosing period of 25 days, an observation period was conducted for Group 5 (Compound 1+abemaciclib), Group 7 (abemaciclib+fulvestrant), and Group 8 (Compound 1+abemaciclib+fulvestrant) with continued twice weekly measurement of tumor volume and body weight measurements but no additional administration of compound.

SMILES: [2H]C([2H])(c1cnn(C)c1)N1C(=O)c2cc(S(=O)(=O)NC3(C)CC3)ccc2N2C1=NC[C@H]2C [Compound 1, (R)-1-methyl-4-((1-methyl-1H-pyrazol-4-yl)methyl-d2)-N-(1-methylcyclopropyl)-5-oxo-1,2,4,5-tetrahydroimidazo[1,2-a]quinazoline-7-sulfonamide]
- IC50 ([1]; read-out: IC50 inhibition of ATP content): 1.07 µM
- IC90 ([1]; read-out: IC90 inhibition of ATP content): 10.7 µM
- tolerability [2]: well tolerated
